Literature values, collected in US20060292651A1, “Protein labelling with oº-alkylguanine-dna alkyltrnsferase” (priority 2002, published 2006).

Target: T1, hAGT (Homo sapiens, UniProt P16455)
T1 sequence (P16455 1-207): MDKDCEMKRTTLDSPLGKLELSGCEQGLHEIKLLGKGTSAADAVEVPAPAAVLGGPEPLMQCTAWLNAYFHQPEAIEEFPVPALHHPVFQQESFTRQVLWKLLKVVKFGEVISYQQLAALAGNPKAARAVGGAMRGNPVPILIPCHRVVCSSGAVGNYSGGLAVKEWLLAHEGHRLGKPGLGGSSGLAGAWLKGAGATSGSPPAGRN
Details: reaction with hAGT

second order rate constant: approximately 10^3 sec^−1 M^−1
SMILES: Nc1nc(OCc2ccccc2)c2nc[nH]c2n1 [O^6-benzyl-guanine]
